According to patent publication US20230303547A1, “N-CYANOPYRROLIDINES WITH ACTIVITY AS USP30 INHIBITORS” (MISSION THERAPEUTICS LIMITED, priority 2020, published 2023):
Where two headings read alike, the source gives them in different places.

Tests used:
USP30 = USP30 (Homo sapiens (Human), UniProt Q70CQ3); experiment: USP30 biochemical IC50 assay (fluorescence polarisation)
Description: It is generally desirable to maximise the potency of a drug molecule against the target enzyme in relevant assays in order to lower the effective/efficacious dosage that is to be administered to patients. Compounds of the invention may be tested for USP30 affinity using the in vitro biochemical fluorescence polarization (FP) assay described herein.
Dilution plates were prepared at 21 times the final concentration (2100 µM for a final concentration of 100 µM) in 50% DMSO in a 96-well polypropylene V-bottom plate (Greiner #651201). A typical 8-point dilution series would be 100, 30, 10, 3, 1, 0.3, 0.1, 0.03 µM final. Reactions were performed in duplicate in black 384 well plates (small volume, Greiner 784076) in a final reaction volume of 21 µl. Either 1 µl of 50% DMSO or diluted compound was added to the plate. USP30 (Boston Biochem #E582) was diluted in reaction buffer (40 mM Tris, pH 7.5, 0.005% Tween 20, 0.5 mg/ml BSA, 5 mM beta-mercaptoethanol) to achieve a final assay concentration of 4 nM, and 10 µl of diluted USP30 was added to the compound. Enzyme and compound were incubated for 30 min at room temp. Reactions were initiated by the addition of 50 nM of TAMRA labelled peptide linked to ubiquitin via an iso-peptide bond as fluorescence polarisation substrate. Reactions were read immediately after addition of substrate and following a 2-hour incubation at room temperature. Readings were performed on a Pherastar Plus (BMG Labtech). λ Excitation 540 nm; λ Emission 590 nm.

UCHL1 = UCHL1 (Homo sapiens (Human), UniProt P09936); experiment: UCHL1 DUB IC50; type: biochemical; settings: for DUB selectivity preference for USP30 v UCHL1: fold
Cathepsin K = Cathepsin K (Homo sapiens (Human), UniProt P43235); experiment: Cathepsin K IC50; type: biochemical
Cathepsin L = Cathepsin L (Homo sapiens (Human), UniProt P07711); experiment: Cathepsin L IC50; type: biochemical
Cathepsin S = Cathepsin S (Homo sapiens (Human), UniProt P25774); experiment: Cathepsin S IC50; type: biochemical
Cathepsin V = Cathepsin V (Homo sapiens (Human), UniProt O60911); experiment: Cathepsin V IC50; type: biochemical
Cathepsin B = Cathepsin B (Homo sapiens (Human), UniProt P07858); experiment: Cathepsin B IC50; type: biochemical
[1] = test system: USP2, USP6, USP10, USP15, USP16, USP21, USP25, USP28, USP46/UAF1; experiment: DUB selectivity panel IC50; type: biochemical; settings: for DUB selectivity preference for USP30 v 9 DUBs: fold, minimum over nine DUBs; for IC50: range over the nine DUBs
[2] = test system: cathepsins (B, K, L, S and V); experiment: Cathepsin panel summary; type: biochemical; settings: for Selectivity preference for USP30 v cathepsins: fold; for IC50: summary over the five cathepsins
[3] = reference examples, USP30 biochemical IC50 assay, read-out: USP30 IC50
[4] = USP30 biochemical IC50 assay, read-out: IC50

Chain of Cathepsin V (O60911 114-334, species assumed): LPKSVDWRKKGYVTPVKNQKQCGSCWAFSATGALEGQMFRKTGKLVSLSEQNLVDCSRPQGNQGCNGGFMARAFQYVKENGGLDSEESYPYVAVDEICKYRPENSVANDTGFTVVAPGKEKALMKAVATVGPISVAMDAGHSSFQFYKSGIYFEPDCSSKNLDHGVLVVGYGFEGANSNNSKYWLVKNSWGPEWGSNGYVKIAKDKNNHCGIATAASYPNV
Chain of Cathepsin S (P25774 115-331, species assumed): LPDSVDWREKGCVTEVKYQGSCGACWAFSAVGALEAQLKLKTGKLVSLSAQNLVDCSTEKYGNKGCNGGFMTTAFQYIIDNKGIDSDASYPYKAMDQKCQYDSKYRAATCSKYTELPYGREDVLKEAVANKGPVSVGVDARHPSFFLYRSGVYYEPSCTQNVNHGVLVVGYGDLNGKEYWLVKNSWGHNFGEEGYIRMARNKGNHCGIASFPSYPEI
Chain of USP30 (Q70CQ3 57-517): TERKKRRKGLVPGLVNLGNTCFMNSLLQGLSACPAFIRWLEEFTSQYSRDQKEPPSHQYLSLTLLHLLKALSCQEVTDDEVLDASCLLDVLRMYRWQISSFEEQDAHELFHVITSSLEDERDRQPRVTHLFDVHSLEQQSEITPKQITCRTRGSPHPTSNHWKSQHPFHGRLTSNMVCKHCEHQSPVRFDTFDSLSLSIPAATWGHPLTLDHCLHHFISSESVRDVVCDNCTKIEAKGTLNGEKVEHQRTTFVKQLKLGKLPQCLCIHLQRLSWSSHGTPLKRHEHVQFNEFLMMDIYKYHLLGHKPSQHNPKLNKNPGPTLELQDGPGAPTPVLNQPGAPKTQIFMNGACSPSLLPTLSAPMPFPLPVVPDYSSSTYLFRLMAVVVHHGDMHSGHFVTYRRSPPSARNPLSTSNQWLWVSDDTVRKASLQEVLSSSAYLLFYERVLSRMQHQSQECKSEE
Chain of Cathepsin L (P07711 114-333, species assumed): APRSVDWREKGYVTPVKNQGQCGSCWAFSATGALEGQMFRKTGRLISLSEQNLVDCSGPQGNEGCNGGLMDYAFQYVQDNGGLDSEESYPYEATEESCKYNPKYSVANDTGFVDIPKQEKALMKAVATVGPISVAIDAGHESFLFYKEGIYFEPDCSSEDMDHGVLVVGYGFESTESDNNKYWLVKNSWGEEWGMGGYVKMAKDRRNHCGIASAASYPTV
Chain of UCHL1 (P09936 whole entry, species assumed): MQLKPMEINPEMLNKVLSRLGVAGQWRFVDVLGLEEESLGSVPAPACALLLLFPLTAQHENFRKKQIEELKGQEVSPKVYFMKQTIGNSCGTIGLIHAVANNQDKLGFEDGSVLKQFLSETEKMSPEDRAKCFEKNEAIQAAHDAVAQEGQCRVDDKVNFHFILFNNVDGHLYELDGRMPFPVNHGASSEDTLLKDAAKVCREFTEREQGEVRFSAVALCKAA
Chain of Cathepsin K (P43235 115-329, species assumed): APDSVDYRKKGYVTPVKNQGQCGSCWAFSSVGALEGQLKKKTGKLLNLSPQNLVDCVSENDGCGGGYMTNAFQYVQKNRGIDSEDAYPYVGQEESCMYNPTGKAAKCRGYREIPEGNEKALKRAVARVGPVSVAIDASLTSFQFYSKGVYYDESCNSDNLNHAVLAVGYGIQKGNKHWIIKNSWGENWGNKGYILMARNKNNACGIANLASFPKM

Row | Structure (SMILES) | IC50 (UCHL1) [µM] | DUB selectivity preference for USP30 v UCHL1 (UCHL1) | IC50 (Cathepsin K) [µM] | IC50 (Cathepsin L) [µM] | IC50 (Cathepsin S) [µM] | IC50 (Cathepsin V) [µM] | IC50 (Cathepsin B) [µM] | IC50 (USP30; [4]) [µM] | IC50 [2] [µM] | DUB selectivity preference for USP30 v 9 DUBs [1] | Selectivity preference for USP30 v cathepsins [2] | also measured
1 | COc1cc(-c2cnc(NC(=O)[C@H]3CCN(C#N)C3)s2)ccc1C#N [C, reference compound] | 0.21 | 1.3 |  |  |  |  |  |  |  |  |  | IC50 (USP30; read-out: DUB IC50 USP30): 0.16 µM; IC50 (USP30; [3]): 0.16 µM
2 | COc1ccc(C#N)cc1-c1cnc(C(=O)N[C@@H]2C[C@@H](C)N(C#N)C2)o1 [Example 4, 5-(5-cyano-2-methoxyphenyl)-N-((3R,5R)-1-cyano-5-methylpyrrolidin-3-yl)oxazole-2-carboxamide] | > 300 |  | 165 | 294 | > 300 | > 300 | > 300 |  |  |  |  | 
3 | C[C@@H]1C[C@@H](NC(=O)c2ncc(-c3cc(C#N)ccc3OC(F)(F)F)o2)CN1C#N [Example 8, 5-(5-cyano-2-(trifluoromethoxy)phenyl)-N-((3R,5R)-1-cyano-5-methylpyrrolidin-3-yl)oxazole-2-carboxamide] |  |  |  |  |  |  |  | 0.004 |  |  |  | 
4 | COC[C@@H]1C[C@@H](NC(=O)c2ncc(-c3cc(C#N)ccc3OC(F)(F)F)o2)CN1C#N [Example 7, 5-(5-cyano-2-(trifluoromethoxy)phenyl)-N-((3R,5S)-1-cyano-5-(methoxymethyl)pyrrolidin-3-yl)oxazole-2-carboxamide] | > 300 |  | 14.9 | 13.8 | > 30 | 12.1 | 60.9 | 0.003 | ≥ 12.1 | ≥ 1333 | ≥ 4033 | IC50 (USP30; read-out: DUB IC50 USP30): 0.003 µM
5 | COC[C@@H]1C[C@@H](NC(=O)c2ncc(-c3cc(C#N)ccc3OC)o2)CN1C#N [Example 5, 5-(5-cyano-2-methoxyphenyl)-N-((3R,5S)-1-cyano-5-(methoxymethyl)pyrrolidin-3-yl)oxazole-2-carboxamide] |  |  |  |  |  |  |  | 0.003 |  |  |  | 
6 | COC[C@@H]1C[C@@H](NC(=O)c2nc(-c3cc(C#N)ccc3OC)co2)CN1C#N [Example 6, 4-(5-cyano-2-methoxyphenyl)-N-((3R,5S)-1-cyano-5-(methoxymethyl)pyrrolidin-3-yl)oxazole-2-carboxamide] | > 300 |  | 40.4 | 39.8 | 64.8 | 91.6 | 52.1 | 0.002 | ≥ 39.8 | ≥ 700 | ≥ 19900 | IC50 [1]: 1.4 to 258 µM; IC50 (USP30; read-out: DUB IC50 USP30): 0.002 µM
7 | N#CN1CC[C@H](C(=O)Nc2ncc(-c3ccccc3)s2)C1 [D, reference compound] |  | 0.8 |  |  |  |  |  |  |  |  |  | 
8 | N#Cc1ccc(-c2cnc(NC(=O)[C@H]3CCN(C#N)C3)s2)cc1OC(F)(F)F [B, reference compound] | 0.52 | 3.0 |  |  |  |  |  |  |  |  |  | 

Second part, led by results:

Row | IC50 (UCHL1) [µM] | DUB selectivity preference for USP30 v UCHL1 (UCHL1) | IC50 (Cathepsin K) [µM] | IC50 (Cathepsin L) [µM] | IC50 (Cathepsin S) [µM] | IC50 (Cathepsin V) [µM] | IC50 (Cathepsin B) [µM] | IC50 (USP30; [4]) [µM] | IC50 [2] [µM] | Structure (SMILES) | DUB selectivity preference for USP30 v 9 DUBs [1] | Selectivity preference for USP30 v cathepsins [2] | also measured
9 |  |  |  |  |  |  |  | 0.002 |  | COc1cc(F)c(C#N)cc1-c1cnc(C(=O)N[C@@H]2C[C@@H](C)N(C#N)C2)o1 [Example 9, 5-(5-cyano-4-fluoro-2-methoxyphenyl)-N-((3R,5R)-1-cyano-5-methylpyrrolidin-3-yl)oxazole-2-carboxamide] |  |  | 
10 |  | 1.5 |  |  |  |  |  |  |  | CC1CC(C(=O)Nc2ncc(-c3ccccc3)s2)CN1C#N (centres unmarked) [Reference Example E, reference compound] |  |  | 
11 |  |  |  | 2.9 |  |  |  |  | 0.79 to 8.8 | COc1cccc(-c2cc(C(=O)N[C@@H]3CCN(C#N)C3)on2)c1 [Reference Example A, reference compound] | ≥ 2.2 | 11.6 - 129 | IC50 [1]: 0.15 to 22.4 µM; fold more potent against USP30 than against cathepsin K (Cathepsin K): 11.6 fold; IC50 (USP30; read-out: DUB IC50 USP30): 0.068 µM; IC50 (USP30; [3]): 0.068 µM
12 | > 300 | greater than 4412 | > 300 | > 300 | > 300 | 190 | > 300 | 0.068 | ≥ 189 | COC[C@H]1C[C@@H](NC(=O)c2nc(-c3cc(C#N)ccc3OC3CC3)co2)CN1C#N [Example 12, 4-(5-cyano-2-cyclopropoxyphenyl)-N-((3R,5R)-1-cyano-5-(methoxymethyl)pyrrolidin-3-yl)oxazole-2-carboxamide] | ≥ 110 | ≥ 2788 | DUB selectivity preference for USP30 v UCHL1 (UCHL1; listed as Ex. 12): > 4412
13 | > 300 |  | 100 | 15.4 | 130 | > 100 | 83 | 0.01 | ≥ 15.4 | COC[C@H]1C[C@@H](NC(=O)c2ncc(-c3cc(C#N)ccc3OC3CC3)o2)CN1C#N [Example 11, 5-(5-cyano-2-cyclopropoxyphenyl)-N-((3R,5R)-1-cyano-5-(methoxymethyl)pyrrolidin-3-yl)oxazole-2-carboxamide] | ≥ 7820 | ≥ 1540 | 
14 |  |  |  |  |  |  |  | 0.004 |  | COC[C@@H]1C[C@@H](NC(=O)c2nc(-c3cc(C#N)ccc3OC3CC3)co2)CN1C#N [Example 10, 4-(5-cyano-2-cyclopropoxyphenyl)-N-((3R,5S)-1-cyano-5-(methoxymethyl)pyrrolidin-3-yl)oxazole-2-carboxamide] |  |  | 
